Test results as given in US6133279A, “Therapeutic agents for renal diseases and organ preservatives” (Chugai Seiyaku Kabushiki Kaisha, priority 1996, dated 2000).
Where two headings read alike, the source gives them in different places.

How the values were obtained:
[1] = test system: ischemic acute renal failure model; assay: Ischemic acute renal failure model, renal ischemia 60 minutes (in vivo); parameters: species or system rat (male SD rats); conditions: 200 mg/kg oral once a day
Protocol: (§1) Effect of a compound of the present invention on an in vivo renal disease was studied using an ischemic acute renal failure model.
(§2) An ischemic acute renal failure model was prepared from in groups of 8 each rats (male SD rats, weight: 224-285 g) fed with high-fat diet. High-fat diet feeding was started by free access to high-fat diet (cholesterol level 1.25%) from 7 or 8 days prior to unilateral nephrectomy and left renal artery clamping. The test compound was administered as a solution in soybean oil via oral route (4 ml/kg). Control group was orally administered soybean oil alone. The administration of compound was started from 4 or 5 days before the ischemic treatment at a dose of 200 mg/kg once a day. After the ischemia treatment, the oral administration of the compound was continued at a frequency of once a day. The ischemic treatment was performed by removing the right kidney and clipping a renal artery of the left kidney for 30 or 60 minutes.
(§3) Renal functions after ischemic treatment were determined by using urine and blood samples daily collected. Urine volume and the creatinine level of serum and urine were evaluated to calculate creatinine clearance as an indication of renal functions. Influences of high-fat diet feeding were monitored by measuring serum cholesterol level.

[2] = test system: puromycin-induced nephrosis model; assay: Puromycin-induced nephrosis (1), preadministration (in vivo); parameters: species or system rat (male SD rats); conditions: day 8; for Creatinine clearance: control 576 ± 148; for Creatinine: serum, control 0.93 ± 0.21
Protocol: Effect of the compound of the present invention on an in vivo renal disease was studied using a puromycin-induced nephrosis model.
A puromycin-induced renal failure model was prepared from rats in groups of 5-8 each (6 week-old male SD rats) fed with high-fat diet. High-fat diet feeding was started by free access to high-fat diet (cholesterol level 1.25%) from 7 days before puromycin treatment. Puromycin (puromycin aminonucleoside, SIGMA Chemical Co.) treatment was performed by intraperitoneal administration at a dose of 100 mg/kg. The test compound was administered as a solution in soybean oil via oral route (4 ml/kg). Control group was orally administered soybean oil alone. The administration of compound was started from 3 days before the puromycin treatment once a day. After the puromycin treatment, the oral administration of the compound was continued.
Renal functions were determined by using urine and blood samples collected on day 8 after the puromycin treatment. Volume of urine and the creatinine levels in serum and urine were evaluated to calculate creatinine clearance as an indication of renal functions.

[3] = test system: ischemic acute renal failure model; assay: Ischemic acute renal failure model, renal ischemia 30 minutes (in vivo); parameters: species or system rat (male SD rats); conditions: 200 mg/kg oral once a day
Protocol: as §1, §2, §3

[4] = test system: porcine kidney-derived LLC-PK1 cells; assay: Protective effect against oxidized LDL-induced injury of porcine kidney-derived LLC-PK1 cells (1); format: cell-based; conditions: Sus scrofa, LLC-PK1, 6 h, mean ± standard deviation, read-out: Cytoprotection rate (%)
Protocol: For the purpose of evaluating in vitro cytoprotective effect of the compounds of the present invention, a cytoprotective study was performed using porcine kidney-derived LLC-PK1 cells (ATCC-CRL-13921) injured by oxidized low-density lipoprotein (oxidized LDL).
Oxidized LDL was prepared by incubating 1 mg/ml of rabbit LDL in PBS (-) in the presence of 10 μM CuSO4 at 37° C. for 24 hours. Cell culture was carried out by plating 1.25×10^4 cells/250 μl/well on a 48-well plate containing M199 medium containing 3% FBS. Test compounds were dissolved or suspended in ethanol and added to the wells in an amount of 1.25 μl/well to a concentration of 0.1, 1 or 10 μM in each well. After 16 hours or immediately after the addition of the compounds, oxidized LDL was added to the wells. Probucol, α-tocopherol and Trolox which is a water-soluble analogue of α-tocopherol were used as reference control compounds. Oxidized LDL was diluted twice with saline and then added to the wells in an amount of 62.5 μl/well to a concentration of 100 μg/ml and the cells were cultured for 6 hours after addition of the oxidized LDL. Then, 162.5 μl/well of the culture medium were collected and measured for the lactate dehydrogenase (LDH) level (LD-L: SIGNA DIAGNOSTICS) having leaked into the medium.
The magnitude of cytoprotective effect was expressed as the cytoprotection rate which was determined by calculating the data assuming that the magnitude in wells containing oxidized LDL is 0% and that the magnitude in wells containing saline is 100%.

[5] = test system: murine mesangial derived MES13 cells; assay: Protective effect against oxidized LDL-induced injury of murine mesangial cells (in vitro); format: cell-based; conditions: Mus musculus, MES13, 10 h, mean ± standard deviation, read-out: Cytoprotection rate (%)
Protocol: For the purpose of evaluating in vitro cytoprotective effect of the compounds of the present invention on mesangial cells, a cytoprotective study was performed using murine mesangial derived MES13 cells (ATCC-CRL-1927) injured by oxidized LDL.
Oxidized LDL was prepared in the same manner as in Test example 1. Cell culture was carried out by plating 2.5×10^4 cells/250 μl/well on a 48-well plate using FBS-free medium (mixture of DME medium and F12 medium in a ratio of 3:1). Test compounds were dissolved or suspended in ethanol and added to the wells in an amount of 1.25 μl/well to a concentration of 1 or 10 μM in each well. After 16 hours or immediately after the addition of the compounds, oxidized LDL was added to cells in an amount of 25 μl/well to a concentration of 91 μg/ml and the cells were cultured for 10 hours after addition of the oxidized LDL. Then, 150 μl/well of the culture medium were collected and measured for the lactate dehydrogenase level (LDL: SIGMA DIAGNOSTICS) having leaked in the medium.
The magnitude of cytoprotective effect was expressed as the cytoprotection rate which was determined by calculating the data assuming that the magnitude in wells containing oxidized LDL is 0% and that the magnitude in containing saline is 100%.

[6] = 20 mg/kg oral once a day from 3 days before puromycin
[7] = 200 mg/kg oral once a day from 3 days before puromycin, P < 0.05
[8] = compound added 16 hours before adding oxidized LDL
[9] = compound added immediately before adding oxidized LDL

In the case of `CCCCCC1(CCCCC)Cc2c(cc(C(C)(C)C)c(O)c2C(C)(C)C)O1` [Example 36, 4,6-Di-t-butyl-2,2-di-n-pentyl-5-hydroxy-2,3-dihydrobenzofuran], the “Creatinine” value ([1]; 1 day after ischemia (60 minutes), control 3.89 ± 0.77, P < 0.01) is reported as 2.81 ± 0.42 mg/dL, the “Creatinine clearance” value ([1]; 1 day after ischemia (60 minutes), control 276 ± 118, P < 0.05) is reported as 478 ± 171 mL/day and the “Creatinine” value ([1]; 2 days after ischemia (60 minutes), control 3.33 ± 1.90) is reported as 1.94 ± 0.30 mg/dL. The “Creatinine clearance” value ([1]; 2 days after ischemia (60 minutes), control 363 ± 140, P < 0.01) was 594 ± 123 mL/day, the “Creatinine” value ([1]; 3 days after ischemia (60 minutes), control 3.19 ± 2.19) was 1.86 ± 0.27 mg/dL and the “Creatinine clearance” value [2, 6] was 724 ± 176 mL/day. For the same compound, the “Creatinine clearance” value [2, 7] was 1055 ± 482 mL/day, the “Creatinine” value [2, 6] was 0.71 ± 0.14 mg/dL and the “Creatinine” value [2, 7] was 0.59 ± 0.23 mg/dL. For the same compound, the “Creatinine” value ([3]; 1 day after ischemia (30 minutes), control 1.73 ± 0.73, P < 0.05) was 1.06 ± 0.24 mg/dL, the “Creatinine clearance” value ([3]; 1 day after ischemia (30 minutes), control 632 ± 167, P < 0.05) was 934 ± 253 mL/day and the “Creatinine” value ([3]; 2 days after ischemia (30 minutes), control 1.84 ± 1.40) was 0.96 ± 0.23 mg/dL. The “Creatinine clearance” value ([3]; 2 days after ischemia (30 minutes), control 678 ± 277, P < 0.05) was 1095 ± 325 mL/day, the “Creatinine” value ([3]; 3 days after ischemia (30 minutes), control 2.19 ± 2.34) was 1.05 ± 0.26 mg/dL and the inhibition at 0.1 µM [4, 8] was -1 ± 7.4%. The inhibition at 0.1 µM [4, 9] was -3.2 ± 1.1%, the inhibition at 1 µM [4, 8] was 92.2 ± 3.7% and the inhibition at 1 µM [4, 9] was 0.6%. It also gave an inhibition at 10 µM [4, 8] of 97.7 ± 1.1%, an inhibition at 10 µM [4, 9] of 78.8 ± 3.6% and an inhibition at 1 µM [5, 8] of 9.7 ± 1.8%. It also gave an inhibition at 1 µM [5, 9] of 2.7 ± 0.7%, an inhibition at 10 µM [5, 8] of 43.5 ± 0.5% and an inhibition at 10 µM [5, 9] of 40 ± 3.5%.
